Assay results as given in the NIST ThermoML archive (doi:10.1021/je060330k).
± gives the expanded uncertainty stated by the source.

Details: Liquid, Closed cell (Static) method

FCC(F)(F)F [1,1,1,2-tetrafluoroethane]
vapor or sublimation pressure (295.4 K): 612 ± 1.3 kPa | vapor or sublimation pressure (300 K): 704.4 ± 1.5 kPa | vapor or sublimation pressure (304 K): 788.5 ± 1.6 kPa
